In patent publication US10399933B2, “Inhibitors of indoleamine-2,3-dioxygenase for the treatment of cancer” (BRISTOL-MYERS SQUIBB COMPANY, priority 2015, dated 2019) one finds IC50 data, which are given here for 25 compounds.

pIC50: −log10 of the molar value.

In one experiment the target is T1, human IDO1 (Homo sapiens, UniProt P14902). The experiment can be described thus: Human IDO-1 inhibitory activity in HEK cells (human IDO1/HEK293 cellular assay). It is filed as cell-based. Also on record: expressed in transfected cells. As to conditions: HEK human IDO-1 cellular assay; 500 nM reference standard = 100% inhibition, DMSO = 0%. On the procedure: They were cultured in medium (DMEM with 10% FBS) containing 1 mg/ml G418 for two weeks.
T1 sequence (P14902 whole entry): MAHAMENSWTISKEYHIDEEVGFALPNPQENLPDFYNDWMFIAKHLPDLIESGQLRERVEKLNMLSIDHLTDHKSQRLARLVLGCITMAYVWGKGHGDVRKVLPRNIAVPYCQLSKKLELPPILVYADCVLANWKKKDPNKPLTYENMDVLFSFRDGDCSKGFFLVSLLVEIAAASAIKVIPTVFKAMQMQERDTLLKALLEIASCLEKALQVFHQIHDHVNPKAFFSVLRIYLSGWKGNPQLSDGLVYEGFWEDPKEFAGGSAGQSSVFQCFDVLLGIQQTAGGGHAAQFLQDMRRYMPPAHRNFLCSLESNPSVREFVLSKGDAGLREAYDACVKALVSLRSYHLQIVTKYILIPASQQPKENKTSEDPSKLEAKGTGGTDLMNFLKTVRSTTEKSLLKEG
The human IDO1/HEK293 cells were seeded at 10,000 cells per 50 μL per well with RPMI/phenol red free media contains 10% FBS in a 384-well black wall clear bottom tissue culture plate (Matrix Technologies LLC) 100 nL of certain concentration of compound was then added to each well using ECHO liquid handling systems. The cells were incubated for 20 hours in 37° C. incubator with 5% CO2.
The compound treatments were stopped by adding trichloroacetic acid (Sigma-Aldrich) to a final concentration at 0.2%. The cell plate was further incubated at 50° C. for 30 minute. The equal volume supernatant (20 μL) and 0.2% (w/v) Ehrlich reagent (4-dimethylaminobenzaldehyde, Sigma-Aldrich) in glacial acetic acid were mixed in a new clear bottom 384-well plate. This plate was then incubated at room temperature for 30 minute. The absorbance at 490 nm was measured on Envision plate reader.
`Cc1ccc(CC(=O)Nc2cc(C(C)CC(=O)O)ccc2N(CC(C)C)C2CCOCC2)cc1` (single isomer, unassigned) [Example 967, 3-(4-(Isobutyl(tetrahydro-2H-pyran-4-yl)amino)-3-(2-(p-tolyl)acetamido)phenyl)butanoic Acid]: the pIC50 (commonly −log10 of the IC50, conventionally taken in molar units) was above 7.30.

The compound `CCN(c1ccc(C(C)CC(=O)O)cc1Nc1ccc(Cl)cc1)C1CCOCC1` (single isomer, unassigned) [Example 612 E2, 3-(3-((4-Chlorophenyl)amino)-4-(ethyl(tetrahydro-2H-pyran-4-yl)amino)phenyl)butanoic Acid] had a pIC50 above 8.30.

For the compound `CCC(CC(=O)O)c1cc(F)c(N(CC(C)C)CC(C)C)c(NC(=O)Cc2ccc(Cl)cc2F)c1` (single isomer, unassigned) [Example 1092 E2], the negative logarithm of the IC50 (pIC50) was above 8.30.

`CCOc1ccc(NC(=O)Nc2cc(C(COC)CC(=O)O)cc(F)c2N(CC(C)C)CC(C)C)cc1` (single isomer, unassigned) [Example 1185, 3-(4-(diisobutylamino)-3-(3-(4-ethoxyphenyl)ureido)-5-fluorophenyl)-4-methoxybutanoic acid]: the pIC50 was above 8.30.

On to `COCC(CC(=O)O)c1cc(F)c(N(CC(C)C)CC(C)C)c(NC(=O)Nc2ccc(OC(F)(F)F)cc2)c1` (single isomer, unassigned) [Example 1197, 3-(4-(Diisobutylamino)-3-fluoro-5-(3-(4-(trifluoromethoxy)phenyl)ureido)phenyl)-4-methoxybutanoic Acid], for which the negative-log IC50 (pIC50) is above 7.30.

Consider `CCCN(CC1CC1)c1ccc(C(CC)CC(=O)O)cc1Nc1ccc(Cl)cc1` (single isomer, unassigned) [Example 656 E2, 3-(3-((4-Chlorophenyl)amino)-4-((cyclopropylmethyl) (propyl)amino)phenyl)pentanoic Acid], for which the pIC50 is above 8.30.

In turn, `COCC(CC(=O)O)c1ccc(N(CC(C)C)C2CCCCC2)c(NC(=O)Cc2cc(C)on2)c1` (single isomer, unassigned) [Example 1238, 3-(4-(Cyclohexyl(isobutyl)amino)-3-(2-(5-methylisoxazol-3-yl)acetamido)phenyl)-4-methoxybutanoic Acid] gave a pIC50 below 7.30.

`CCC(CC(=O)O)c1cc(F)c(N(CC(C)C)C2CCCCC2)c(NC(=O)Nc2ccc(Cl)cc2F)c1` (racemic) [Example 1090, 3-(3-(3-(4-chloro-2-fluorophenyl)ureido)-4-(cyclohexyl(isobutyl)amino)-5-fluorophenyl)pentanoic acid] showed a negative-log IC50 (pIC50) above 8.30.

For `CCC(CC(=O)O)c1cc(F)c(N(CC(C)C)CC(C)C)c(NC(=O)Cc2ccc(Cl)cc2F)c1` (single isomer, unassigned) [Example 1092 E1], the pIC50 is above 8.30.

Consider `CCC(CC(=O)O)c1ccc(N2CCC[C@H]2C(C)(C)O)c(NC(=O)Nc2cc(C)on2)c1` (single isomer, unassigned) [Example 831], for which the pIC50 was below 7.30.

`CCC(CC(=O)O)c1ccc(N(CC(C)C)C(C)C)c(Nc2ccc3nc(C)sc3c2)c1` (single isomer, unassigned) [Example 730, 3-(4-(isobutyl(isopropyl)amino)-3-((2-methylbenzo[d]thiazol-6-yl)amino)phenyl)pentanoic acid] showed a pIC50 below 7.30.

The compound `CCN(c1ccc(C(C)CC(=O)O)cc1NC(=O)Nc1ccc(Cl)cc1F)C1CCOCC1` (single isomer, unassigned) [Example 637 E2, 3-(3-(3-(4-Chloro-2-fluorophenyl)ureido)-4-(ethyl (tetrahydro-2H-pyran-4-yl)amino)phenyl)butanoic Acid] had a pIC50 above 8.30.

`CCCOc1ncc(Nc2cc(C(CC)CC(=O)O)ccc2N(CC(C)C)C2CCCCC2)cn1` (single isomer, unassigned) [Example 654, 3-(4-(cyclohexyl(isobutyl)amino)-3-((2-propoxypyrimidin-5-yl)amino)phenyl)pentanoic acid]: the pIC50 is above 8.30.

As to “3-(4-((1,1- dioxidotetrahydro-2H- thiopyran-4-yl)(ethyl) amino)-3-((4-fluorophenyl) amino)phenyl)-4- isopropoxybutanoic acid [Example 300]”, the pIC50 is above 7.30.

`CCC(CC(=O)O)c1ccc(N(CC(C)C)CC(C)C)c(NC(=O)Cc2ccc(C)cc2)c1` (single isomer, unassigned) [Example 1103 E2, 3-(4-(Diisobutylamino)-3-(2-(p-tolyl)acetamido)phenyl)pentanoic Acid] had a pIC50 above 8.30.

`CC[C@H](CC(=O)O)c1ccc(N2CCOC[C@@H]2C(C)C)c(Nc2ccc(F)cc2)c1` (single isomer, unassigned) [Example 90] gave a negative-log IC50 (pIC50) above 7.30.

Compound `CCN(c1ccc([C@H](COC)CC(=O)O)cc1Nc1cnc(C)nc1)C1CCOCC1` (single isomer, unassigned) [Example 416] gave a pIC50 below 7.30.

Consider `CCC(CC(=O)O)c1cc(F)c(N(CC(C)C)C2CCCCC2)c(NC(=O)Cc2ccc(C)cc2)c1` (single isomer, unassigned) [Example 1101 E2], for which the pIC50 is above 8.30.

Compound `CCC(CC(=O)O)c1ccc(N(CCC(C)C)C2CCCCC2)c(NC(=O)Cc2ccc(C)cc2)c1` (single isomer, unassigned) [Example 1099 E2] had a pIC50 above 7.30.

`CCC(CC(=O)O)c1ccc(N2C[C@@H]3C[C@H]2CN3Cc2ccccc2)c(Nc2ccc(C)cc2)c1` (single isomer, unassigned) [Example 666 E2] had a pIC50 above 8.30.

For `CCC(CC(=O)O)c1ccc(N(CC)C2CCCOC2)c(Nc2ccc(Cl)cc2)c1` (single isomer, unassigned) [Example 60 E1, 3-(3-((4-Chlorophenyl)amino)-4-(ethyl(tetrahydro-2H-pyran-3-yl)amino)phenyl)pentanoic Acid], the pIC50 is above 8.30.

On to `CCN(c1ccc(C(CC(=O)O)c2ccccc2)cc1NC(=O)Nc1ccc(C)cc1)C1CCOCC1` (single isomer, unassigned) [Example 594, 3-(4-(Ethyl(tetrahydro-2H-pyran-4-yl)amino)-3-(3-(p-tolyl)ureido)phenyl)-3-phenylpropanoic Acid], for which the negative-log IC50 (pIC50) is below 7.30.

Consider `CCC(CC(=O)O)c1ccc(N(CC)C2CCOCC2)c(NC(=O)Nc2cnc(C)nc2)c1` (single isomer, unassigned) [Example 488 Enantiomer 2, 3-(4-(Ethyl(tetrahydro-2H-pyran-4-yl)amino)-3-(3-(2-methylpyrimidin-5-yl)ureido)phenyl)pentanoic Acid], for which the negative logarithm of the IC50 (pIC50) is below 7.30.

The next experiment deals with T1, human IDO1. Description: Human IDO-1 inhibitory activity in Hela cells (interferon-gamma stimulated). It is filed as cell-based. The arrangement: endogenous in cells; host or cells: HeLa cells stimulated with interferon-gamma. As to conditions: 18 hours, unstimulated wells = 100% inhibition. On the procedure: HeLa cells were seeded at 20,000 cells per 30 μL per well with RPMI/phenol red free media containing 10% FBS in a 384-well tissue culture plate (black with clear bottoms). 50 nL of compound was added to cells and incubated at 37° C. for one hour. 20 μL of the recombinant human Interferon-gamma (R&D System, Cat. #285-IF, at final concentration of 10 ng/ml) or recombinant murine Interferon-gamma (PEPROTECH® Inc., Cat. #315-05, final concentration of 5 ng/ml) was added to activate IDO signaling. The cells were incubated for 18 hours in 37° C. incubator with 5% CO2.
Compound treatment was stopped by adding 5 μl trichloroacetic acid to a final concentration of 3%. Subsequently, the cell plate was further incubated at 50° C. for 30 minute. An equal volume supernatant (20 μL) and 2% (w/v) Ehrlich reagent (4-dimethylaminobenzaldehyde) in glacial acetic acid were mixed in a new clear bottom 384-well plate. This plate was incubated at room temperature for 30 minutes. Absorbance at 490 nm was measured on Envision plate reader.
Compound IC50 values were calculated using counts from unstimulated (no INF-gamma treatment) wells as 100% inhibition. INF-gamma treatment without compound treatment as 0% inhibition.
Regarding `CCC(CC(=O)O)c1ccc(N2CCOC(C)(C)C2)c(NC(=O)Nc2ccc(Cl)cc2F)c1` (single isomer, unassigned) [Example 1322 E2, 3-(3-(3-(4-Chloro-2-fluorophenyl)ureido)-4-(2,2-dimethylmorpholino)phenyl)pentanoic Acid], the pIC50 is below 7.30.

For `CCN(c1ccc(C(CC(=O)O)C2CC2)cc1NC(=O)Nc1ccc(C#N)cc1)C1CCS(=O)(=O)CC1` (single isomer, unassigned) [Example 348 E2, 3-(3-(3-(4-Cyanophenyl)ureido)-4-((1,1-dioxidotetrahydro-2H-thiopyran-4-yl)(ethyl)amino)phenyl)-3-cyclopropylpropanoic Acid], the pIC50 was below 7.30.
